≈ marks a conversion by molar mass, not a printed value.
What was measured:
[1] = test system: Pseudomonas aeruginosa; assay: Antimicrobial activity against Pseudomonas aeruginosa PAO1 H103 by broth microdilution method; type: functional
[2] = test system: Staphylococcus aureus; assay: Antimicrobial activity against Staphylococcus aureus ATCC 25923 by broth microdilution method; type: functional
[3] = Half life in mouse serum; type: ADME, cell-free

Molecule	MIC [1]	MIC [2]	half-life [3]
CC[C@H](C)[C@H](NC(=O)[C@H](CNC(=N)N)NC(=O)[C@H](Cc1c[nH]c2ccccc12)NC(=O)[C@H](CNC(=N)N)NC(=O)[C@H](CNC(=N)N)NC(=O)[C@@H](C)N)C(=O)N[C@H](C(=O)N[C@H](C(=O)N[C@H](C(=O)N[C@@H](CNC(=N)N)C(=O)N[C@H](C(=O)N[C@@H](CNC(=N)N)C(=O)N[C@@H](CNC(=N)N)C(=O)N[C@H](Cc1cnc[nH]1)C(N)=O)C(C)C)[C@@H](C)CC)C(C)C)C(C)C	2 µg/mL (≈ 1.17 µM)	1 µg/mL (≈ 0.587 µM)	
CC[C@H](C)[C@H](NC(=O)[C@H](CCCNC(=N)N)NC(=O)[C@H](Cc1c[nH]c2ccccc12)NC(=O)[C@H](CCCNC(=N)N)NC(=O)[C@H](CCCNC(=N)N)NC(=O)[C@@H](C)N)C(=O)N[C@H](C(=O)N[C@H](C(=O)N[C@H](C(=O)N[C@@H](CCCNC(=N)N)C(=O)N[C@H](C(=O)N[C@@H](CCCNC(=N)N)C(=O)N[C@@H](CCCNC(=N)N)C(=O)N[C@H](Cc1cnc[nH]1)C(N)=O)C(C)C)[C@@H](C)CC)C(C)C)C(C)C	2 µg/mL (≈ 1.07 µM)	1 µg/mL (≈ 0.534 µM)	
H-RRWRIVVIRVRR-NH2	2 µg/mL	1 µg/mL	1 h
